Common to all, as to assay type: biochemical
The target of experiment [1] is T1, mouse 9cRDH (Mus musculus, UniProt O55240).
T1 sequence (O55240 1-318): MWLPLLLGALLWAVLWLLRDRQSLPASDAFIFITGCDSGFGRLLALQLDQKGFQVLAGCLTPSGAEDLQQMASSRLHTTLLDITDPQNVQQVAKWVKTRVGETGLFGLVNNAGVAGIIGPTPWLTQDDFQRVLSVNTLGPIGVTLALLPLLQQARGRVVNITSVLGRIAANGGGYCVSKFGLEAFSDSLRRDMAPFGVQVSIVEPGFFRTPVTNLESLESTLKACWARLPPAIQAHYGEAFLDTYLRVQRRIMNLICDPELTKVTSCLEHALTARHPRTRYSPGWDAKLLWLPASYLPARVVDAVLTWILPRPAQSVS
The experiment in a line: Inhibition of recombinant mouse 9cRDH activity (9-cis-retinol oxidation, CHO cell homogenate, HPLC).

Experiment [2] concerns the target T2, human 9-cis retinol dehydrogenase (9cRDH) (Homo sapiens, UniProt Q92781).
T2 sequence (Q92781 1-318): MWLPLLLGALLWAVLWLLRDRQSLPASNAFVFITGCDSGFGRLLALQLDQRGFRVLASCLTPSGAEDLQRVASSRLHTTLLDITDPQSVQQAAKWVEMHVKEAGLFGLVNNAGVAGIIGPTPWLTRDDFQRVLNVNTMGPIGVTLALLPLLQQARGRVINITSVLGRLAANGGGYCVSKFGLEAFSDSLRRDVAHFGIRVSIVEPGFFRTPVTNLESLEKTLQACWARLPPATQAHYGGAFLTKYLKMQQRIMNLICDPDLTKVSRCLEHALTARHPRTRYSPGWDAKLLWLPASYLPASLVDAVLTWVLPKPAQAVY
The experiment in a line: Inhibition of recombinant human 9cRDH activity (9-cis-retinol oxidation, CHO cell homogenate, HPLC).

Experiment [3] addresses T3, human 9cRDH (Homo sapiens, UniProt Q92781).
T3 sequence (Q92781 1-318): T2 sequence (Q92781 1-318)
The experiment in a line: Hydroxysteroid oxidation/reduction by human 9cRDH (TLC). The conditions noted are these: 37° C., 1.5 h; TLC detection limit approximately 3 pmol/min/mg protein. As to the method:
(§1) To investigate whether human or mouse 9cRDH will catalyze oxidations or reductions of 3α-hydroxy-, 11β-hydroxy- or 17β-hydroxysteroids, these steroids were incubated at 37° C. for 1.5 h in the assay media described above for assessing oxidation/reduction of 9-cis-retinol/9-cis-retinaldehyde. The Hepes NAD^+-containing assay buffer described above was employed to assess hydroxysteroid oxidation and to assess hydroxysteroid reduction the acetate buffer containing NADH (or NADPH) assay buffer (see above) was employed. Immediately following incubation, the steroids were extracted as described above for retinoids. The final hexane extract was evaporated to near dryness and this was spotted onto a silica high performance TLC plate (Whatman Inc., Clifton, N.J.) and developed in hexane/diethyl ether/acetic acid (70:30:1, v/v) or ethyl acetate/chloroform (25:75, v/v). Steroids were visualized by charring after treatment of the TLC plates with an areosol of 10% (v/v) H2SO4 in methanol.
(§2) Biswas and Russell (32) have reported that rat liver all-trans-retinol dehydrogenase type I also uses several 3α-hydroxy- and 17β-hydroxysteroids as substrates. Chai et al. (18) also reported that hydroxysteroids are substrates for mouse liver cis-retinol dehydrogenase. Since human 9cRDH is approximately 50% identical to the rat liver enzymes and shares approximately 63% homology to mouse liver cis-retinol dehydrogenase, next investigated was whether these steroids might also be substrates for 9cRDH. To test this possibility it was determined whether human or mouse 9cRDH would catalyze oxidation of 5α-androstan-3α, 17β-diol, androsterone, testosterone or dihydrotestosterone to corresponding ketone products. Also investigated was whether human and/or mouse 9cRDH could catalyze reduction of the corresponding ketones. […] It is estimate, based on the lower limits for hydroxysteroid detection by TLC, that it would be possible to detect rates of hydroxysteroid oxidation as low as approximately 3 pmol/min/mg protein. This rate of hydroxysteroid oxidation is at least 2-orders of magnitude lower than Vmax values reported by Biswas and Russell (32) and Chai et al. (18) for oxidation of hydroxysteroids in their studies of enzymes that are able to oxidize both retinol and hydroxysteroids.

In experiment [4] the target is T1, mouse 9cRDH. Description: Hydroxysteroid oxidation/reduction by mouse 9cRDH (TLC). To be noted: 37° C., 1.5 h; TLC detection limit approximately 3 pmol/min/mg protein. As to the method: as §1, §2
Experiment [5] deals with T4, mouse 9cRDH (m9cRDH) (Mus musculus, UniProt O55240).
T4 sequence (O55240 1-318): T1 sequence (O55240 1-318)
Description: Retinaldehyde isomer reduction by recombinant mouse 9cRDH. The conditions noted are these: substrate 10 μM, 15 min, 150–180 μg protein/assay, NADH, pH 5.0. As to the method:
(§3) Enzymatic Assays. Assays for human and mouse 9cRDH were carried out essentially as were described previously for human 9cRDH (19). For expression of mouse 9cRDH a cDNA clone obtained from a mouse liver cDNA library was employed (see below). Recombinant human or mouse 9cRDH expressed in CHO cells was incubated in an assay mixture containing 10 μM 9-cis-retinol (added in 0.02 mL ethanol) and 2 mM NAD in 10 mM Hepes, pH 8.0, containing 150 mM KCl, 1 mM EDTA, and 50 μg phosphotidyl choline for 15 min at 37° C. (final assay volume of 0.6 ml) with agitation. This assay mixture was used routinely to measure oxidation of 9-cis-retinol to 9-cis-retinaldehyde and in studies assessing oxidation of 11-cis-, 13-cis- and all-trans-retinol to their corresponding aldehydes. For some experiments, the ability of human or mouse 9cRDH to catalyze the reduction of 9-cis-, 11-cis-, 13-cis- or all-trans-retinaldehyde was assessed. To assess these reduction reactions, incubations were carried out in 100 mM sodium acetate, pH 5.0, containing 50 μg phosphotidyl choline and 2 mM NADH (or 2 mM NADPH) in a final volume of 0.6 ml for 15 min at 37° C.
(§4) Immediately following incubation of the assay, the assay mixture was denatured with an equal volume of absolute ethanol (0.6 ml), and the retinoids extracted into 2.5 ml of hexane. Following one backwash of the hexane extract with 0.5 ml of deionized water, the hexane was evaporated to dryness under a gentle stream of N2. The extracted retinoids were immediately redissolved in 120 μl of hexane and analyzed by normal phase HPLC as described below.

Experiment [6] addresses T5, human 9cRDH (h9cRDH) (Homo sapiens, UniProt Q92781).
T5 sequence (Q92781 1-318): T2 sequence (Q92781 1-318)
Description: Retinaldehyde isomer reduction by recombinant human 9cRDH. To be noted: substrate 10 μM, 15 min, 150–180 μg protein/assay, NADH, pH 5.0. How it is done:
as §3, §4

In experiment [7] the target is T5, human 9cRDH (h9cRDH). The experiment in a line: Retinol isomer oxidation by recombinant human 9cRDH (substrate and cofactor specificity). The conditions noted are these: for h9cRDH specific activity, retinol oxidation: substrate 10 μM, 15 min, 150–180 μg protein/assay, NAD+. As to the method:
Enzymatic Assay of Retinol Dehydrogenase Activity. Transfected CHO cell pellets were homogenized in PBS at 4° C. using 50 strokes of a Dounce homogenizer For assay of retinol dehydrogenase activity, aliquots of unfractionated CHO cell homogenate were incubated with 10, μM retinol (either as the all-trans, 13-cis, or 9-cis isomer added in ethanol) and either 2 mM NAD+ or 2 mM NADP+ in 10 mM Hepes containing 150 mM KCl, 1 mM EDTA, and 10, μg/ml phosphotidyl choline at pH 8.0 and 37° C. for prechosen time intervals. The final assay volume was 0.6 ml. Assays were routinely carried out in amber glass tubes that had been flushed with N2 to shield the retinoids from both light and O2 All subsequent extractions and procedures were carried out in a manner that minimized exposure of the retinoids to light and O2.
Immediately following incubation, the assay mixture was denatured with an equal volume of absolute ethanol (0.6 ml), and the retinoids were extracted into 3 ml of HPLC grade hexane. Following one backwash of the hexane extract with 0.5 ml of deionized water, the hexane was evaporated to dryness under a gentle stream of N2, and the extracted retinoids were immediately redissolved in 120 μl of hexane and analyzed by normal phase HPLC (see below).
HPLC Procedures. Stereoisomers of both retinol and retinaldehyde were separated on a 4.6×250-mm Vydac 101HS54 silica column using hexane:n-propanol:1-octanol (98.9:1.0:0.1 v/v) flowing at 1.5 ml/min as the mobile phase. The running column was preceded by a silica guard column. Retinols and retinaldehydes were detected by UV absorbance at 350 nm. Retention times for all-trans-, 13-cis-, and 9-cis-retinols were established using purified compounds obtained as described above. Retention times for all-trans-, 13-cis-, and 9-cis-retinaldehyde were determined using commercial standards (Sigma). Quantities of each retinol and retinaldehyde isomer present in extracts were determined by comparisons of the integrated areas under the HPLC peaks with a standard curve constructed relating integrated peak area with known masses of each retinoid isomer. The concentrations of each retinoid isomer were determined by UV-visible spectrophotometry using published extinction coefficients for each retinol and retinaldehyde isomer (26).
as §3, §4

For experiment [8], the target named is T4, mouse 9cRDH (m9cRDH). Description: Retinol isomer oxidation by recombinant mouse 9cRDH. To be noted: for m9cRDH specific activity, retinol oxidation: substrate 10 μM, 15 min, 150–180 μg protein/assay, NAD+. How it is done: as §3, §4
Where [9] appears, read: 10 μM steroid, equimolar to substrate, forward (retinol oxidation) or reverse (retinaldehyde reduction) direction.

Each structure is given as a SMILES string. Where two headings read alike, the source gives them in different places.

Consider `C[C@]12CCC(=O)C[C@@H]1CC[C@@H]1[C@@H]2CC[C@]2(C)[C@@H](O)CC[C@@H]12` [5α-androstan-17βol-3one], for which the “inhibition of mouse 9cRDH activity by hydroxysteroids” value in experiment [1] is recorded as “none of these hydroxysteroids inhibited”. Moreover, in experiment [2], the “inhibition of human 9cRDH activity by hydroxysteroids” value is reported as “none of these hydroxysteroids inhibited”. Moreover, the “catalysis by human 9cRDH of hydroxysteroid oxidation to ketone products (or reduction of the corresponding ketones)” value in experiment [3] is “Neither human nor mouse 9cRDH were found to catalyze”. The “catalysis by mouse 9cRDH of hydroxysteroid oxidation to ketone products (or reduction of the corresponding ketones)” value in experiment [4] is “Neither human nor mouse 9cRDH were found to catalyze”.
With `C[C@]12CC[C@@H](O)C[C@@H]1CC[C@@H]1[C@@H]2CC[C@]2(C)[C@@H](O)CC[C@@H]12` [5α-androstane-3α, 17βdiol], in experiment [1] (setting [9]), the “inhibition of mouse 9cRDH activity by hydroxysteroids” value is given as “none of these hydroxysteroids inhibited”. The “inhibition of human 9cRDH activity by hydroxysteroids” value in experiment [2] (setting [9]) is reported as “none of these hydroxysteroids inhibited”. Further, the “catalysis by human 9cRDH of hydroxysteroid oxidation to ketone products (or reduction of the corresponding ketones)” value in experiment [3] is “Neither human nor mouse 9cRDH were found to catalyze”. Also, the “catalysis by mouse 9cRDH of hydroxysteroid oxidation to ketone products (or reduction of the corresponding ketones)” value in experiment [4] is given as “Neither human nor mouse 9cRDH were found to catalyze”.
`CC1=C(/C=C/C(C)=C\C=C\C(C)=C\C=O)C(C)(C)CCC1` [9-cis-retinaldehyde]: the “m9cRDH specific activity, retinaldehyde reduction” value in experiment [5] was 420 pmol/min/mg protein. Further, the “h9cRDH specific activity, retinaldehyde reduction” value in experiment [6] turned out to be 268 pmol/min/mg protein.
`CC1=C(/C=C/C(C)=C\C=C\C(C)=C\CO)C(C)(C)CCC1` [9-cis-retinol]: the “oxidation to the corresponding retinaldehyde by transfected CHO cell homogenate (in words)” value in experiment [7] (2 mM NAD+) is given as “avidly oxidized”. In experiment [7] (in assay concentration 10 μM), the “share of the added retinol oxidized to retinaldehyde by CHO cell homogenate” value is reported as “Over 60%”. Further, the “h9cRDH specific activity, retinol oxidation” value in experiment [7] was 367 pmol/min/mg protein. In experiment [8], the “rate of oxidation by mouse enzyme as multiple of the rate of 11-cis-retinol oxidation” value was 2 times and the “m9cRDH specific activity, retinol oxidation” value amounted to 328 pmol/min/mg protein.
Turning to `CC1=C(/C=C/C(C)=C/C=C\C(C)=C\C=O)C(C)(C)CCC1` [11-cis-retinaldehyde], the “m9cRDH specific activity, retinaldehyde reduction” value in experiment [5] stood at 506 pmol/min/mg protein. Besides, in experiment [6], the “h9cRDH specific activity, retinaldehyde reduction” value was found to be 1220 pmol/min/mg protein.
Take `CC1=C(/C=C/C(C)=C/C=C\C(C)=C\CO)C(C)(C)CCC1` [11-cis-retinol]: in experiment [7], the “h9cRDH specific activity, retinol oxidation” value is listed as 442 pmol/min/mg protein. In addition, in experiment [8], the “m9cRDH specific activity, retinol oxidation” value was determined as 152 pmol/min/mg protein.
